Results from US9987276B2 (Celgene CAR LLC, priority 2008, dated 2018).

Columns and labels:
[1] = target: Erbb4 kinase domain (Homo sapiens (Human), UniProt Q15303); assay: Mass spectrometry for ERBB4; format: binding; details: 60 minutes at 10-fold excess of compound
Description: Erbb4 kinase domain (Upstate) was incubated with compound for 60 minutes at 10-fold excess of compound I-4 and I-11 to protein. 1 μl aliquots of the samples (total volume of 4.24 ul) were diluted with 10 μl of 0.1% TFA prior to micro C4 ZipTipping directly onto the MALDI target using Sinapinic acid as the desorption matrix (10 mg/ml in 0.1% TFA:Acetonitrile 50:50). For intact protein mass measurement the instrument was set in Linear mode using a pulsed extraction setting of 16,952 for the myoglobin standard used to calibrate the instrument (Shimadzu Axima TOF^2).
Intact ErbB4 protein occurs at MH+ of 35850 with corresponding sinapinic (matrix) adducts occurring about 200 Da higher. A stochiometric incorporation of the test compound (I-4 and I-11) (Mw of 410 Da) produced a new mass peak which is approximately 410 Da higher (MH+ of 36260).

[2] = target: EGFR T790M (Homo sapiens (Human), UniProt P00533, T790M); assay: EGFR mutant T790M inhibition assay; format: biochemical
Description: The Omnia Assay Protocol for potency assessment against EGFR is performed as described in Example 251 above except that the EGFR-WT- and EGFR T790M/L858R-modified optimized reagent conditions are: […]

[3] = target: T1, BTK (Homo sapiens (Human), UniProt Q06187); assay: Washout experiment with I-7 and probe compound I-215 in Ramos cells; format: cell-based; details: 0.1 μM for 1 hour
[4] = system: TI-2 independent B cell activation; assay: In vivo thymus-independent (TI-2) B cell activation; details: C57/B6 mice, 100 mg/kg daily day 0 through 5, TNP-Ficoll, serum day 6
[5] = target: T1, BTK; assay: BTK occupancy in Ramos cells with I-7 and probe I-215 using streptavidin beads; format: cell-based; details: 1 hour, higher concentrations of I-7 (0.1, 0.05 μM)
Description: Ramos cells were incubated with 0.1, 0.05, 0.01, or 0.001 μM I-7 in serum free media for 1 hour at 37° C. The cells were pelleted by centrifugation and lysed in Cell Extraction buffer (Invitrogen) for 10 minutes on ice, centrifuged (10 minutes at 14,000 rpm) and the supernatant was collected. Cell lysates were incubated with 1 μM I-215 for 1 hour at room temperature, then incubated with streptavidin-coupled agarose beads (ThermoFisher) overnight at 4° C. The beads were washed three times with lysis buffer and the bound proteins were boiled off the beads at 95° C. for 5 minutes in 4×LDS Sample Buffer. The amount of BTK associated with the probe I-215 was assessed by BTK western blot. All values were normalized to the DMSO-treated sample which is set to 100%.

[6] = PG-PS arthritis model; format: in vivo; details: female Lewis rats, oral gavage daily through day 22
Description: On day 0, female Lewis rats received an intraperitoneal (IP) bolus of peptidoglycan-polysaccharide (PG-PS) in an amount of 15 μg/g rat body weight. Baseline control rats received an IP bolus of PBS. The vehicle and treatment groups were dosed via oral gavage just prior to PG-PS administration. Treatment with vehicle and compound continued each day through day 22. Maximal lateral ankle width measurements of both rear limbs were collected with a caliper throughout the study. On day 23, study was terminated and the final change in ankle swelling was calculated and compared to vehicle controls.

T1 sequence (Q06187 whole entry): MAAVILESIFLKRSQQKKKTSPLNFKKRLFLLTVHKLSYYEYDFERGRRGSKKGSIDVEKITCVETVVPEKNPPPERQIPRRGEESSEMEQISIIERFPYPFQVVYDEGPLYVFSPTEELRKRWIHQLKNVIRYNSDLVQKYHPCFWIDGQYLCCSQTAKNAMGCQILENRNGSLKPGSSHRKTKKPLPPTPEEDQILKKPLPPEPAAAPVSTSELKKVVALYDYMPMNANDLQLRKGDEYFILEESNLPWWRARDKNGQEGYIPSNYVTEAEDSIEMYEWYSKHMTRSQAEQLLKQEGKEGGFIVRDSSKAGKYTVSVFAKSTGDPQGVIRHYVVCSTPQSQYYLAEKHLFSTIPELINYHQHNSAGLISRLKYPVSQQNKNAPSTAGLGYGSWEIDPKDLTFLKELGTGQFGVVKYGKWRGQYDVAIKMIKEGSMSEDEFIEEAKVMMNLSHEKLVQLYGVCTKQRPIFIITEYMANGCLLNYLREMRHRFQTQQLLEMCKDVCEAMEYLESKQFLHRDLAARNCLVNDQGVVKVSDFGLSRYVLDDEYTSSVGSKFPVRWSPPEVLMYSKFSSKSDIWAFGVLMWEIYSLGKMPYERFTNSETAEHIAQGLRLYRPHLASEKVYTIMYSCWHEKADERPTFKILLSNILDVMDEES
Sequence of Erbb4 kinase domain (Q15303 718-985): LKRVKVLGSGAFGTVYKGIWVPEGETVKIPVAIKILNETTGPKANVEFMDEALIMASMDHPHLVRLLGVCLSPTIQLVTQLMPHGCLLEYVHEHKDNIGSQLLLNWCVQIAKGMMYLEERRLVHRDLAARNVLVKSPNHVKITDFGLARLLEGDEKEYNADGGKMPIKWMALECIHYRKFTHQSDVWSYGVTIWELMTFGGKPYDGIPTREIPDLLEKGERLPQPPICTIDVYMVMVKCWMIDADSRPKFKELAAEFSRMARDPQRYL
Sequence of EGFR T790M (P00533 25-1210 T790M): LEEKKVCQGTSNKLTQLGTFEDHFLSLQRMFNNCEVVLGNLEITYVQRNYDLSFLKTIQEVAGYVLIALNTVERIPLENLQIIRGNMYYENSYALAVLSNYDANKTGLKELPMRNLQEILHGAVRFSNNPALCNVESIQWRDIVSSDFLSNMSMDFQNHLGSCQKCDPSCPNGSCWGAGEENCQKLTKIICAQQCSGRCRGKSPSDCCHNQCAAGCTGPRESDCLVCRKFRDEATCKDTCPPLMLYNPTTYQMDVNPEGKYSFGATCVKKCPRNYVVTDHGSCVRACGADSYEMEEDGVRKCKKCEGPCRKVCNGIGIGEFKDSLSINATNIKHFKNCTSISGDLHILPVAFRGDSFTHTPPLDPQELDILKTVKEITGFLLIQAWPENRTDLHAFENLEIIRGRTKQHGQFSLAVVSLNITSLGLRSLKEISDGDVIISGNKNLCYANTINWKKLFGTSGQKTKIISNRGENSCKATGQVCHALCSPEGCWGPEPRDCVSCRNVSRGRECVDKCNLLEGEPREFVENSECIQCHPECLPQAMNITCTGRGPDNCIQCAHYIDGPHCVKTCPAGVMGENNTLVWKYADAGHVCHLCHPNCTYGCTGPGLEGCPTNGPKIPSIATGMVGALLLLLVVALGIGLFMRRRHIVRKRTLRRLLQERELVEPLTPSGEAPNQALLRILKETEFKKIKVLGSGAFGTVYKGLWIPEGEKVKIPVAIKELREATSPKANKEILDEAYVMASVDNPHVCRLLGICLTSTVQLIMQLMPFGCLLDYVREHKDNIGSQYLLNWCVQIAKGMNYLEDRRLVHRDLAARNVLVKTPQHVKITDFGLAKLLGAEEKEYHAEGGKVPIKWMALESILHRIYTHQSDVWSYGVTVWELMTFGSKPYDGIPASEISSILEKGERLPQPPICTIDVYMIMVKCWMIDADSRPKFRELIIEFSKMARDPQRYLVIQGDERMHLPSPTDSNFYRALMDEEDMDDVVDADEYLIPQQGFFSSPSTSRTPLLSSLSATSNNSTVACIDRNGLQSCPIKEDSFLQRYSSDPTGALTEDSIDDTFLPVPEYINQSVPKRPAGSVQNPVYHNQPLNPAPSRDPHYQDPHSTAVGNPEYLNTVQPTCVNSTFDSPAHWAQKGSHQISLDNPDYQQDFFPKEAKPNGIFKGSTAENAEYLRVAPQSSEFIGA

| SMILES | covalent modification of ErbB4 (mass spectrometry) [1] | IC50 [2] | time BTK protein remains occupied after compound removal [3] | % Inhibition IgG3 (1:100) [4] | % Inhibition IgM (1:1600) [4] | BTK occupancy (BTK available to probe I-215) [5] | % inhibition ankle swelling [6] |
| --- | --- | --- | --- | --- | --- | --- | --- |
| Cc1cccc(Nc2nc(Nc3cccc(NC(=O)/C=C/CN(C)C)c3)ncc2F)c1 [Compound I-4, (E)-4-(dimethylamino)-N-(3-(5-fluoro-4-(m-tolylamino)pyrimidin-2-ylamino)phenyl)but-2-enamide] | covalent modification | < 10 nM |  |  |  |  |  |
| C=CC(=O)Nc1cccc(Nc2nc(Nc3ccccc3)ncc2C)c1 [Compound I-7, N-(3-(5-methyl-2-(phenylamino)pyrimidin-4-ylamino)phenyl) acrylamide] |  |  | over 8 hours | 57% | 48% | fully occupied | 77.5% |
